3 molecules from patent US20230227815A1, “Systems, Methods, And Compositions For A Facile Accelerated Specific Therapeutic (Fast) Pipeline” (priority 2019, published 2023) can be followed below.

The test system of the assay is E. Coli CUS2B. Description: Minimum inhibitory concentration assay. It counts as cell-based. As to conditions: for resistance phenotype (CLSI breakpoints): E. Coli CUS2B clinical isolate; for MIC: Escherichia coli, E. Coli CUS2B. From the text:
To validate the E. Coli CUS2B resistance phenotype observed in the clinic, we measured the isolate's minimum inhibitory concentrations (MIC) for a variety of antibiotics from different classes (FIG. 17A). […] Two potent carbapenem antibiotics, meropenem and doripenem, were the only drugs to which the clinical isolate was susceptible. To investigate this partial carbapenem resistance, we focused on the E. Coli CUS2B response to ertapenem and meropenem. The structures of meropenem and ertapenem differ in the pyrrolidinyl ring's position 2 side chain (FIG. 17B). Meropenem's substituent amide group is thought to be responsible for increased potency against gram-negative organisms in comparison to imipenem. At this position ertapenem has a benzoate substituent group, which imbues the molecule with a net negative charge and increases its lipophilicity, resulting in increased plasma half-life but decreased affinity for membrane porins.
E. Coli CUS2B was provided the Dr. Nancy Madinger, at the University of Colorado Hospital Clinical Microbiology Laboratory's organism bank. The isolate was obtained via rectal swab from a pregnant patient. Unless otherwise mentioned, CUS2B was propagated in aerobic conditions at 37° C. in liquid cultures of cation-adjusted Mueller Hinton broth (CAMHB) with shaking at 225 rpm or on solid CAMHB with 15 g/L of agar. Minimum inhibitory concentration assays Three colonies were picked from a plate and used to inoculate three separate overnight cultures in 1 mL CAMHB each. After 16 hours, the cultures were diluted 1:10,000 and treated with a range of antibiotic concentrations, decreasing in 2-fold increments, in a 384 or 96-well microplate using three biological replicates per condition. Growth in the plate was monitored with a Tecan GENios (Tecan Group Ltd.) running Magellan™ software (v 7.2) at an absorbance of 461 590 nm every 20 minutes for 16 hours, with shaking between measurements. The minimum inhibitory concentration was identified as the lowest antibiotic concentration preventing growth.

Each structure is given as a SMILES string. Converted amounts (≈) assume the structure as drawn.

One may read the MIC as the smallest concentration in the dilution series that meets the test's criterion for growth inhibition.

Regarding `C[C@@H](O)[C@H]1C(=O)N2C(C(=O)O)=C(S[C@@H]3CN[C@H](CNS(N)(=O)=O)C3)[C@H](C)[C@H]12` [doripenem], the “resistance phenotype (CLSI breakpoints)” value is listed as “susceptible”. For `C[C@@H](O)[C@H]1C(=O)N2C(C(=O)O)=C(S[C@@H]3CN[C@H](C(=O)N(C)C)C3)[C@H](C)[C@H]12` [meropenem], the “resistance phenotype (CLSI breakpoints)” value was “susceptible” and the MIC is 0.25 µg/mL (≈ 0.652 µM). Regarding `C[C@@H](O)[C@H]1C(=O)N2C(C(=O)O)=C(S[C@@H]3CN[C@H](C(=O)Nc4cccc(C(=O)O)c4)C3)[C@H](C)[C@H]12` [ertapenem], the “resistance phenotype (CLSI breakpoints)” value is on record as “resistant” and 2 µg/mL (≈ 4.21 µM) was the least that counted as inhibitory (MIC).
